In brackets after ≈: the same amount, converted by molar mass. Where two headings read alike, the source gives them in different places.
Experiments:
[1] = Tolerance study in patients with H. pylori infection; format: in vivo, human; conditions: six patients; 20 mg/day cobalt (10 mg b.d) for two weeks; oral capsules or solution
Procedure: In a tolerance study, six patients with H. pylori infection ingested a low dose of 20 mg/day cobalt, as cobalt chloride (10 mg b.d), for two weeks. […] In one patient the cobalt was taken also with a proton pump inhibitor (Lansoprazole) while the remaining 5 took cobalt alone as capsules (4 patients) or a solution (1 patient). 3 of these patients had gastritis and/or duodenitis with a duodenal ulcer also in one of these three. The other 3 had oesophagitis and/or normal stomach and duodenum.

Enterococcus faecalis = experiment: MIC against Enterococcus faecalis; format: cell-based; conditions: for MIC, Ent faecalis: Table 4
Staphylococcus aureus = experiment: MIC against Staphylococcus aureus; format: cell-based; conditions: for MIC, Staphylococcus (aureus or Oxford Staph): Table 4
Pseudomonas aeruginosa [2] = conditions: extrapolated from survival rates; protein broth then phosphate-buffered saline; Zhao et al 1998; cited from earlier work
E. coli = conditions: extrapolated from survival rates; protein broth then phosphate-buffered saline; Zhao et al 1998; cited from earlier work
Pseudomonas aeruginosa [3] = experiment: MIC against Pseudomonas aeruginosa; format: cell-based; conditions: for MIC, Pseudomonas aeruginosa: Table 4
Helicobacter pylori [4] = experiment: Inhibition of Helicobacter pylori growth over time in the STH medium (FIG. 1, cfu/ml against time); format: cell-based; conditions: cobalt 2.00 ppm
Text: FIG. 1 is a graph showing the inhibition of H. pylori growth by cobalt (cobaltous chloride) in the STH medium.
I50=inhibition of 50% of the Helicobacter pylori inoculated by cobaltous chloride. Concentration of cobalt in the medium was 2.00 ppm.

other bacteria = experiment: MIC against other bacteria; format: cell-based; conditions: 32 mg/l = estimate limit between active and non-active metals
Echerichia coli = experiment: MIC against Echerichia coli; format: cell-based; conditions: for MIC, E. coli: Table 4
[5] = system: Coagulase negative staphylococcus; experiment: MIC against coagulase negative staphylococcus; format: cell-based; conditions: Mueller-Hinton agar with 2% horse serum and isosensitest agar with 5% horse blood; several strains
Helicobacter pylori [6] = experiment: MIC against Helicobacter pylori by two fold serial dilution in growth medium; format: cell-based; conditions: for Average Selectivity Ratio: (Sum of MIC values against all bacteria except H. pylori ÷ No. of MIC values) ÷ MIC value for H. pylori; for Mean ratio pH 4:pH 7, first value: Strain 1 (Chloride: against first pH 7 value); for MIC, Strain 1 (pH 7): pH 7 (first value where two are given); for Mean ratio pH 4:pH 7, second value: Strain 2 (Chloride: Strain 1 against second pH 7 value); for MIC, pH 4-7: pH 4-7: pH of the media changes during the experiment from acidic start
Procedure: (§1) Solutions of metal salts were prepared by dilution of the metal salt, optionally together with the ligand, in ultra-high-purity water. The pH values were adjusted to 7 with concentrated sodium hydroxide. The solutions were γ irradiated for 20 to 30 minutes for sterilisation, and then diluted ten fold in the bacterial growth medium to be used.
(§2) A gradient of concentration was obtained by two fold serial dilutions of the medium. The concentrations of metals were analysed by inductively coupled plasma spectrometry. Each dilution was inoculated with the different bacteria to be tested, by multi-point inoculating on the agar media, or suspending in the broth media.
The presence or absence of bacterial growth was reported within the concentration gradient and the minimum concentration of complex in the medium that inhibits totally the bacterial growth (MIC) was determined. The growth on an agar plate was detected by the presence of colonies, and by turbidity in the broth media. The bacteria were identified by the Gram morphology test. Helicobacter pylori growth was also confirmed by biochemical test on the catalase, urease and oxidase activity.

Klebsiella = experiment: MIC against Klebsiella; format: cell-based; conditions: for MIC, Klebsiella: Table 4
Enterococcus faecium = experiment: MIC against Enterococcus faecium; format: cell-based; conditions: Mueller-Hinton agar with 2% horse serum and isosensitest agar with 5% horse blood; several strains
Helicobacter pylori [7] = conditions: for growth in the medium: Ax 0 mg/l
Procedure: as §1, §2
Media were incubated for Helicobacter pylori in a microaerobic atmosphere (gas jar containing a CampyGen® pack, 5% O2-10% CO2-85% N2 by volume) with constant shaking (orbital shaker, 140 rpm) at 37° C. for five days.
The presence or absence of bacterial growth was reported within the concentration gradient and the minimum concentration of complex in the medium that inhibits totally the bacterial growth (MIC) was determined. The growth on an agar plate was detected by the presence of colonies, and by turbidity in the broth media. […] Helicobacter pylori growth was also confirmed by biochemical test on the catalase, urease and oxidase activity.

[8] = system: Staphylococcus (aureus or Oxford Staph); conditions: extrapolated from survival rates; protein broth then phosphate-buffered saline; Zhao et al 1998; cited from earlier work
H. pylori [9] = conditions: H. pylori; cited from earlier work
H. pylori [10] = conditions: cited from earlier work
[11] = Mueller-Hinton agar with 2% horse serum and isosensitest agar with 5% horse blood, several strains
[12] = STH broth, NCTC 11637 and seven clinical isolates

[Cl-].[Cl-].[Co+2] [Co chloride, cobalt (II) chloride]
adverse effects [1]: no reported adverse effects | MIC (Enterococcus faecalis; [11]): >32 µg/mL | MIC, Ent faecalis (Enterococcus faecalis): > 32 µg/mL | MIC (Staphylococcus aureus; [11]): >32 µg/mL | MIC, Staphylococcus (aureus or Oxford Staph) (Staphylococcus aureus): > 32 µg/mL | MIC, Pseudomonas aeruginosa (footnote a) (Pseudomonas aeruginosa [2]): 2.3^a | MIC, E. coli (footnote a) (E. coli): 22.97^a | MIC (Pseudomonas aeruginosa [3]; [11]): >32 µg/mL | MIC, Pseudomonas aeruginosa (Pseudomonas aeruginosa [3]): > 32 µg/mL | time to I50 (inhibition of 50% of the Helicobacter pylori inoculated) (Helicobacter pylori [4]): 5 h | time to total inhibition (Helicobacter pylori [4]): 8 h | activity (MIC) against other bacteria (other bacteria): > 32 µg/mL | MIC (Echerichia coli; [11]): >32 µg/mL | MIC, E. coli (Echerichia coli): > 32 µg/mL | MIC [5]: >32 µg/mL | Average Selectivity Ratio (Helicobacter pylori [6]): 434 | MIC (Helicobacter pylori [6]; [12]): 0.03 to 0.6 µg/mL | MIC (mg/l), median (Helicobacter pylori [6]; STH broth, NCTC 11637 and seven clinical isolates, median): 0.06 mg/L | Mean ratio pH 4:pH 7, first value (Helicobacter pylori [6]): 0.5 | MIC, Strain 1 (pH 4) (Helicobacter pylori [6]; Strain 1): 0.015 | MIC, Strain 1 (pH 7) (Helicobacter pylori [6]; Strain 1): 0.03 | MIC, Strain 1 (pH 7), second value (Helicobacter pylori [6]; Strain 1, pH 7, second of x/y): 0.125 | Mean ratio pH 4:pH 7, second value (Helicobacter pylori [6]): 0.12 | MIC, H. pylori, range in brackets (Helicobacter pylori [6]; Table 4): (<0.03-0.125) | MIC, H. pylori (Helicobacter pylori [6]; Table 4, main value): 0.06 µg/mL | activity against H. pylori at pH 4 relative to pH 7 (Helicobacter pylori [6]; Table 5): about 10 fold | kind of action against H. pylori (Helicobacter pylori [6]; found by measuring the MIC): not only bacteriostatic (i.e. inhibitory of growth), but also bactericidal | minimum inhibitory concentration (MIC) (Helicobacter pylori [6]; in vitro, Co^2+ as cobalt chloride): 0.06 µg/mL | MIC, pH 4-7 (Helicobacter pylori [6]): 0.03-0.4 mg/l | MIC, pH 7 (Helicobacter pylori [6]; pH 7): 0.06-0.4 mg/l | activity against the H. pylori strain deprived of its urease enzyme (Helicobacter pylori [6]; urease-deprived strain): active | MIC (Klebsiella; [11]): >32 µg/mL | MIC, Klebsiella (Klebsiella): > 32 µg/mL | MIC (Enterococcus faecium): >32 µg/mL | growth in the medium (Helicobacter pylori [7]; Co 0.0015 mg/l): + | growth in the medium (Helicobacter pylori [7]; Co 0.004 mg/l): + | growth in the medium (Helicobacter pylori [7]; Co 0.008 mg/l): + | growth in the medium (Helicobacter pylori [7]; Co 0.030 mg/l): − | growth in the medium (Helicobacter pylori [7]; Co 0.060 mg/l): − | growth in the medium (Helicobacter pylori [7]; Co 0.120 mg/l): − | MIC of cobalt (no amoxycillin) (Helicobacter pylori [7]; no amoxycillin): MIC of cobalt (no amoxycillin): 0.030 mg/l | MIC, Staphylococcus (aureus or Oxford Staph) (footnote a) [8]: 22.97^a

O=P([O-])([O-])[O-].O=P([O-])([O-])[O-].[Co+2].[Co+2].[Co+2] [Co phosphate]
MIC, pH 4-7 (Helicobacter pylori [6]): 4 mg/l | MIC, pH 7 (Helicobacter pylori [6]; pH 7): 0.8 mg/l

[Cl][Fe]([Cl])[Cl] [Fe^3+]
MIC, Ent faecalis (Enterococcus faecalis): > 32 µg/mL | MIC, Staphylococcus (aureus or Oxford Staph) (Staphylococcus aureus): > 32 µg/mL | MIC, Pseudomonas aeruginosa (Pseudomonas aeruginosa [3]): > 32 µg/mL | MIC, E. coli (Echerichia coli): > 32 µg/mL | Average Selectivity Ratio (Helicobacter pylori [6]): 1.00 | MIC (Helicobacter pylori [6]; [12]): >32 µg/mL | MIC, H. pylori (Helicobacter pylori [6]; Table 4): >32/>32 | MIC, H. pylori, first of two values (Helicobacter pylori [6]; Table 4): >32/>32 | MIC, Klebsiella (Klebsiella): > 32 µg/mL

O=[N+]([O-])[O-].O=[N+]([O-])[O-].O=[N+]([O-])[O-].[Cr+3] [Cr^2+ (chromium nitrate), chromium nitrate, reference compound]
MIC (Helicobacter pylori [6]; [12]): >32 µg/mL

O=C(O)CN(CCN(CC(=O)O)CC(=O)O)CC(=O)O [EDTA, reference compound]
effect of added ligand on the MIC / action of cobalt against H. pylori (Helicobacter pylori [6]; ligand added to cobalt): inhibited the action of cobalt against H. pylori

O=[N+]([O-])[O-].O=[N+]([O-])[O-].[Co+2] [Co nitrate]
Mean ratio pH 4:pH 7, first value (Helicobacter pylori [6]): 0.07 | MIC, Strain 1 (pH 4) (Helicobacter pylori [6]; Strain 1): 0.05 | MIC, Strain 1 (pH 7) (Helicobacter pylori [6]; Strain 1): 0.69 | Mean ratio pH 4:pH 7, second value (Helicobacter pylori [6]): 0.08 | MIC, Strain 2 (pH 4) (Helicobacter pylori [6]): 0.055 | MIC, Strain 2 (pH 7) (Helicobacter pylori [6]; pH 7): >0.69 | MIC, pH 4-7 (Helicobacter pylori [6]): 0.06 mg/l | MIC, pH 7 (Helicobacter pylori [6]; pH 7): 1 mg/l

[Ni+2] [Ni^2+]
MIC, Ent faecalis (Enterococcus faecalis): > 32 µg/mL | MIC, Staphylococcus (aureus or Oxford Staph) (Staphylococcus aureus): > 32 µg/mL | MIC, Pseudomonas aeruginosa (footnote a) (Pseudomonas aeruginosa [2]): 22.89^a | MIC, E. coli (footnote a) (E. coli): 22.89^a | MIC, Pseudomonas aeruginosa (Pseudomonas aeruginosa [3]): > 32 µg/mL | MIC, E. coli (Echerichia coli): > 32 µg/mL | Average Selectivity Ratio (Helicobacter pylori [6]): 0.89 | MIC (Helicobacter pylori [6]; [12]): >32 µg/mL | MIC, H. pylori (Helicobacter pylori [6]; Table 4): >32/>32 | MIC, H. pylori, first of two values (Helicobacter pylori [6]; Table 4): >32/>32 | MIC, Klebsiella (Klebsiella): > 32 µg/mL | MIC, Staphylococcus (aureus or Oxford Staph) (footnote a) [8]: 22.89^a

[OH][Co][OH] [Co hydroxide]
Mean ratio pH 4:pH 7, first value (Helicobacter pylori [6]): 0.058 | MIC, Strain 1 (pH 4) (Helicobacter pylori [6]; Strain 1): 0.11 | MIC, Strain 1 (pH 7) (Helicobacter pylori [6]; Strain 1): 1.9 | Mean ratio pH 4:pH 7, second value (Helicobacter pylori [6]): 0.029 | MIC, Strain 2 (pH 4) (Helicobacter pylori [6]): 0.11 | MIC, Strain 2 (pH 7) (Helicobacter pylori [6]; pH 7): 3.80 | MIC, pH 4-7 (Helicobacter pylori [6]): 0.125 mg/l | MIC, pH 7 (Helicobacter pylori [6]; pH 7): 2-4 mg/l

CC[C@H]1OC(=O)[C@H](C)[C@@H](O[C@H]2C[C@@](C)(OC)[C@@H](O)[C@H](C)O2)[C@H](C)[C@@H](O[C@@H]2O[C@H](C)C[C@H](N(C)C)[C@H]2O)[C@](C)(OC)C[C@@H](C)C(=O)[C@H](C)[C@@H](O)[C@]1(C)O [clarithromycin]
MIC50 (H. pylori [9]): 0.03 µg/mL (≈ 0.0401 µM) | eradication of infections (H. pylori [10]; in combination with metronidazole): about 70% | eradication of infections (H. pylori [10]; monotherapy): about 34% | eradication of infections (H. pylori [10]; triple therapy with a PPI and either metronidazole or amoxycillin): 85-95%

[Cl][Mn][Cl] [Mn^2+]
MIC, Ent faecalis (Enterococcus faecalis): > 32 µg/mL | MIC, Staphylococcus (aureus or Oxford Staph) (Staphylococcus aureus): > 32 µg/mL | MIC, Pseudomonas aeruginosa (Pseudomonas aeruginosa [3]): > 32 µg/mL | MIC, E. coli (Echerichia coli): > 32 µg/mL | Average Selectivity Ratio (Helicobacter pylori [6]): 1.00 | MIC (Helicobacter pylori [6]; [12]): >32 µg/mL | MIC, H. pylori (Helicobacter pylori [6]; Table 4): >32/>32 | MIC, H. pylori, first of two values (Helicobacter pylori [6]; Table 4): >32/>32 | MIC, Klebsiella (Klebsiella): > 32 µg/mL

Source: US7811609B2, “Use of metal compounds to treat gastrointestinal infections” (priority 2000, dated 2010)
